From article PMC4823997 (Journal of medicinal chemistry, 2015)
Where two headings read alike, the source gives them in different places.

Legend:
[1] = target: hCXCR4 (Homo sapiens, UniProt P61073); test: Radioligand [125I]SDF-1α binding to hCXCR4-transfected HEK293 membrane
[2] = system: HIV-1 IIIB; test: Luciferase activity assay of HIV-1 infectivity in TZM-bl cells; type: cell-based; details: read-out: Anti-HIV EC50; TZM-bl cells, HIV-1 IIIB, M.O.I. 1
[3] = system: CEM cells; test: Cytotoxicity assay; type: cell-based, human
[4] = system: TZM-bl cells; test: Cytotoxicity assay; type: cell-based
[5] = target: T1, CXCR2 (Homo sapiens, UniProt P25025); test: CXCR2 radioligand binding assay
T1 sequence (P25025 1-360): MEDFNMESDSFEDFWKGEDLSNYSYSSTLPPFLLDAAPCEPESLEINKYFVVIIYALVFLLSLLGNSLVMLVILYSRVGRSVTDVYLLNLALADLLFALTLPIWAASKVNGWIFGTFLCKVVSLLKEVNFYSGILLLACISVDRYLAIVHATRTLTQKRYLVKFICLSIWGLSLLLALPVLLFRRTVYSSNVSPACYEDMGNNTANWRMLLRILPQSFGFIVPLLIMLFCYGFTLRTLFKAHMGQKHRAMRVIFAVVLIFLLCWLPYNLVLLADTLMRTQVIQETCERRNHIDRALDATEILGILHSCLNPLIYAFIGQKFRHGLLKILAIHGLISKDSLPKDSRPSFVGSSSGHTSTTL

[6] = target: CCR2 (Homo sapiens, UniProt P41597); test: CCR2 radioligand binding assay
CCR2, sequence (P41597 whole entry, species assumed): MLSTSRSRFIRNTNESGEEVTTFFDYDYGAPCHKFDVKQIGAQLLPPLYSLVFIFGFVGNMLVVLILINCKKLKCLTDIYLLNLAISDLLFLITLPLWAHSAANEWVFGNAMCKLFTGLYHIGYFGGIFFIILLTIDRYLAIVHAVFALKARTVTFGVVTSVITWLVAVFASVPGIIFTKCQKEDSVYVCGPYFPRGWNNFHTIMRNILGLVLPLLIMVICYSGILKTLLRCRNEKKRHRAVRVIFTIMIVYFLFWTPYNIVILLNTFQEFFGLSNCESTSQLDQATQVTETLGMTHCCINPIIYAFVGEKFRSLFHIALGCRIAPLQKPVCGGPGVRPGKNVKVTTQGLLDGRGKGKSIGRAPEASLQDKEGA

[7] = target: T2, CCR4 (Homo sapiens, UniProt P51679); test: CCR4 radioligand binding assay
T2 sequence (P51679 1-360): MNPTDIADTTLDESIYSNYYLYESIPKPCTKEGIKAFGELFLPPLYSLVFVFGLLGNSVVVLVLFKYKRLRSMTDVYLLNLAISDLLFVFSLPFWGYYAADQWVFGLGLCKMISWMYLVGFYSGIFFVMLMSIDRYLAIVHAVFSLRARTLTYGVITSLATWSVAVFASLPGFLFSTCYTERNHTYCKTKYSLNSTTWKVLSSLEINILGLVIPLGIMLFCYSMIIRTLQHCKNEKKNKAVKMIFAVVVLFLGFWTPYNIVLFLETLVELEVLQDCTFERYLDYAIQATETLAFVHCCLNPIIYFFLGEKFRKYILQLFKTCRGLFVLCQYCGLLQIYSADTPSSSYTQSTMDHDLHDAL

[8] = target: CCR5 (Homo sapiens, UniProt P51681); test: CCR5 radioligand binding assay
CCR5, sequence (P51681 whole entry, species assumed): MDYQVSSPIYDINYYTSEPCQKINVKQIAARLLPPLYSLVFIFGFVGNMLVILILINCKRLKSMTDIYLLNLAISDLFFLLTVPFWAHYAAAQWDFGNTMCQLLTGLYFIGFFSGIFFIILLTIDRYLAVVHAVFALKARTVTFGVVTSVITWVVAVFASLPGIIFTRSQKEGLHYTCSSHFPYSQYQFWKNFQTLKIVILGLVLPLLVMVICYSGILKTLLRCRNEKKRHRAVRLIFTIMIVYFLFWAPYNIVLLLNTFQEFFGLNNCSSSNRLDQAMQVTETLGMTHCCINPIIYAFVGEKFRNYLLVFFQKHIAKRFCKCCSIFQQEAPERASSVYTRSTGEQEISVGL

[9] = target: CXCR7 (Homo sapiens, UniProt P25106); type: cell-based
CXCR7, sequence (P25106 whole entry): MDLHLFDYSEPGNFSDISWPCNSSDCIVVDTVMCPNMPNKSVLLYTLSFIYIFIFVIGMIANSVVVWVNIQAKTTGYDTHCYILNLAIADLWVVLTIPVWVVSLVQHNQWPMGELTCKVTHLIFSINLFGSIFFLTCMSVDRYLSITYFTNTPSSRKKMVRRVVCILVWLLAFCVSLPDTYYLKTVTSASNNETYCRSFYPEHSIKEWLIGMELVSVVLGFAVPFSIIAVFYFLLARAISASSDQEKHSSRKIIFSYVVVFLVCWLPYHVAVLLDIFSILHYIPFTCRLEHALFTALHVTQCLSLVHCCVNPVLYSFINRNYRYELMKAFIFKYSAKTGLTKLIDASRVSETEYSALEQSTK

[10] = system: CCRF-CEM cells that express endogenous human CXCR4; details: read-out: IC50 to block SDF-1α-induced CEM migration, 10 nM SDF-1, 2.5 h
[11] = system: HIV-1; details: 0 to 20 nM

hCXCR4, sequence (P61073 whole entry): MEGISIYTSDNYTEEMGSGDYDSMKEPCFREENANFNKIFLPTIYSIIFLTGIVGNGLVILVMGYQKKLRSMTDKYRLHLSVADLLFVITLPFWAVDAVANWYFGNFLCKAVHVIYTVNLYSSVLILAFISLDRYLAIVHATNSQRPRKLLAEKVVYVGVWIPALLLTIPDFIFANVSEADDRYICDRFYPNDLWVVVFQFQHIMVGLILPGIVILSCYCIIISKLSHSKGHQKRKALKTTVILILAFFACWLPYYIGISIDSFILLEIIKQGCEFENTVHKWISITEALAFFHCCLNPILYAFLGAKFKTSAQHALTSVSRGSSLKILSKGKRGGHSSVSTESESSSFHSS

SMILES: c1nc2c(NCc3ccc(CCNCCCNC4CCCCC4)cc3)nc(N3CCNCC3)nc2[nH]1 [Compound 24, N-Cyclohexyl-N′-(2-{4-[(2-piperazin-1-yl-9H-purin-6-ylami-no)-methyl]-phenyl}-ethyl)-propane-1,3-diamine]
- inhibition (%) CXCR4 ([1]; at 10 μM): 100%
- fold increase in CXCR4 binding affinity compared to AMD3100 ([1]; relative to AMD3100): 13 fold
- fold increase in CXCR4 binding affinity compared to compound 4 ([1]; relative to compound 4): 2.2 fold
- EC50 [2]: 0.00051 ± 2e-05 µM
- Selective Index CC50/EC50 CEM ([3]; CC50 (CEM) / anti-HIV EC50): >98039
- CC50 ([3]; read-out: Cytotoxicity CC50 CEM, CEM cells, 72 h): > 50 µM
- Selective Index CC50/EC50 TZM-bl ([4]; CC50 (TZM-bl) / anti-HIV EC50): >98039
- CC50 ([4]; read-out: Cytotoxicity CC50 TZM-bl, TZM-bl cells, 72 h): > 50 µM
- inhibition (%) CXCR2 ([5]; at 10 μM): 16%
- IC50 ([5]; read-out: IC50 CXCR2): > 10 µM
- selective index CXCR2 ([5]; selectivity for CXCR4 binding versus CXCR2): >609
- inhibition (%) CCR2 ([6]; at 10 μM): 10%
- IC50 ([6]; read-out: IC50 CCR2): > 10 µM
- selective index CCR2 ([6]; selectivity for CXCR4 binding versus CCR2): >609
- inhibition (%) CCR4 ([7]; at 10 μM): 11%
- IC50 ([7]; read-out: IC50 CCR4): > 10 µM
- selective index CCR4 ([7]; selectivity for CXCR4 binding versus CCR4): >609
- inhibition (%) CCR5 ([8]; at 10 μM): 15%
- IC50 ([8]; read-out: IC50 CCR5): > 10 µM
- selective index CCR5 ([8]; selectivity for CXCR4 binding versus CCR5): >609
- functional selectivity over CXCR4-dependent HIV entry inhibition ([9]; CXCR7 β-arrestin assay versus HIV entry inhibition): > 1960 fold
- antagonism of SDF-1α binding to CXCR7 or triggering of β-arrestin recruitment ([9]; even at a 40-fold higher SDF-1α concentration): did not antagonize
- IC50 [10]: 0.0031 µM
- anti-HIV activity, time of addition ([11]; added 3 h after HIV-1 infection): significantly reduced
- anti-HIV activity, time of addition ([11]; added 3 h before or simultaneously with HIV-1 infection): maintained its potent anti-HIV activity
